Source: publication PMC11727040, “Monophosphate Derivatives of Luteolin and Apigenin as Efficient Precursors with Improved Oral Bioavailability in Rats” (Antioxidants, 2024)
In brackets after ≈: the same amount, converted by molar mass. Read-outs that look alike come from different tables or passages of the source.

Tests used:
[1] = target: T1, Caco-2 cell apical membrane-associated alkaline phosphatase (ALP) (Homo sapiens, UniProt P09923); test: Dephosphorylation by Caco-2 cell apical membrane-associated ALP; type: cell-based; conditions: Caco-2 cells, HBSS, 37 °C, 120 min incubation, initial concentration 20 μM, read-out: elimination half-life (T1/2) of dephosphorylation
T1 construct: The Caco-2 cells (human colon adenocarcinoma, clone of Caco-2) were obtained from the Bioresource Collection and Research Center; endogenous in cells; host or cells: Caco-2 (human colon adenocarcinoma) cells, intact, 5 days in culture
T1 sequence (P09923 20-503 limits assumed): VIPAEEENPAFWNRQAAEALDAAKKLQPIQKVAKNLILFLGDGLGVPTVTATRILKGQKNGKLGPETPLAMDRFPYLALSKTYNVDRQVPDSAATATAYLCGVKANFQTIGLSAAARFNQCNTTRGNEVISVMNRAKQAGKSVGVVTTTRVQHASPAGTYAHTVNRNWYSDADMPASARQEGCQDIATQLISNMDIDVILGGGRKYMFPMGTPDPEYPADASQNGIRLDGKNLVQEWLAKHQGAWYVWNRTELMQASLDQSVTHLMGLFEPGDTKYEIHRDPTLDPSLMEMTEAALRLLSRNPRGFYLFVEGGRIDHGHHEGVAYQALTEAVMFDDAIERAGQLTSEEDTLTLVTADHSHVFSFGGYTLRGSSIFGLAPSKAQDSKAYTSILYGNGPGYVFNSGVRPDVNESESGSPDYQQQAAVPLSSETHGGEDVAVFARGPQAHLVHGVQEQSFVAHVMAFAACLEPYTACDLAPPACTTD
Description: The Caco-2 cells (human colon adenocarcinoma, clone of Caco-2) were obtained from the Bioresource Collection and Research Center, Hsinchu, Taiwan. Caco-2 cells were cultured according to previously established protocols. For the dephosphorylation study, the cells were seeded onto 6-well plates at a density of 3.0 × 10^5 cells per well in 2 mL of fresh medium. The medium was refreshed every 48 h. […] The plates were then incubated at 37 °C, and aliquots of 200 μL were collected at 15, 30, 60, and 120 min. […] The supernatants were analyzed by HPLC to quantify the relative content of LutPs to Lut and ApnPs to Apn. To assess the activity of human intestinal alkaline phosphatase (ALP), a positive control of fosphenytoin, a phenytoin phosphate prodrug, was used.
The HPLC system employed in this study consisted of the Waters Alliance 2695 separation module (Waters, Milford, MA, USA), a YMC-Pack ODS-AM C18 column (4.6 × 250 mm, 5 µm) with a guard cartridge (Hichrom 5C18, Berkshire, UK) and a Waters 2487 Dual-Absorbance Detector (Waters, Milford, MA, USA). Chromatographic separation was conducted at a temperature of 30 °C, utilizing a linear gradient mobile phase consisting of 0.1% phosphoric acid in H2O (solvent A) and 0.1% phosphoric acid in acetonitrile (solvent B). The elution gradient programs for quantifying each compound are detailed in Supplementary Materials Table S1. Luteolin and its derivatives were detected at a wavelength of 354 nm, while apigenin and its derivatives were detected at a wavelength of 270 nm, and fosphenytoin at 210 nm. The quantitation was conducted using the external standard method with calibration curves, and the quality was ensured by maintaining an R^2 value exceeding 0.99.

[2] = Stability in simulated gastric fluid (SGF) and simulated intestinal fluid (SIF); type: in vitro ADME; conditions: SGF with pepsin and SIF with pancreatin pH 6.8, 125 mg/L, 37 °C
Description: For the SGF solution, 5 g of pepsin was dissolved in 1 L of deionized water with the addition of hydrochloric acid to achieve a pH of 1.8. The SIF solution consisted of 6.8 g of monopotassium phosphate and 10 g of pancreatin dissolved in 1 L of deionized water, maintaining a pH of 6.8.

[3] = Oral pharmacokinetics of Apn, Apn7G and ApnPs in SD rats; type: in vivo, Sprague Dawley (SD) rats
Description: (§1) (Taipei, Taiwan). and housed individually. The facilities were maintained at 25 °C, at constant humidity, and a 12 h light/dark cycle with ad libitum access to food and water and acclimated for at least 7 days prior to any experiments. Rats were fasted for 24 h before the experiments, with water freely available. For the pharmacokinetic study, rats were randomly assigned to three groups for the tests (n = 4 for Lut-relevant groups; n = 4-5 for Apn-relevant groups). […] The Apn-relevant groups received Apn aqueous suspension, Apn7G aqueous suspension, or ApnPs solution. Dosages were designed as 174.7 μmol/kg for Lut and 185.02 μmol/kg for Apn, based on the human dietary supplement dosage of 500 mg/day, translated by the body surface area index as per FDA guidelines. […] Lut and Apn were quantified in biological samples after enzymatic hydrolysis of their conjugated forms. The plasma was acidified to pH 5 by adding 10 μL of 0.5 M acetate buffer. […] The mixture was fractionated using a Sep-Pak C18 cartridge (Waters, Milford, MA, USA), eluted in order with 0.01 M oxalic acid, water/methanol/0.5 M oxalic acid (88:10:2), distilled water, and 100% methanol. The methanol fraction was adjusted to a constant volume of 500 μL and filtered with a 0.22 μm membrane to remove insoluble matter, and, subsequently, the filtrate underwent UPLC-MS/MS. The levels of Lut and Apn in the plasma were quantified using a Waters ACQUITY UPLC I-Class system (Waters, Milford, MA, USA) equipped with an XEVO TQS-microTriple-Quadrupole Tandem Mass Spectrometer (Waters, Milford, MA, USA). Chromatographic separation was achieved using a Thermo Hypersil GOLD aQ C18 (50 × 2.1 mm, 1.9 μm) column (Thermo Fisher Scientific, Waltham, MA, USA). The injection volume was 3 μL. […] The temperature of the column oven was set at 40 °C. The MRM mode in negative mode was used, and the MS parameter was set as follows. The most intense precursor-to-product transitions were selected: m/z 285→133 for luteolin, and m/z 269→107 and m/z 269→41 for apigenin and genistein, respectively. The source voltage was 1500 V. The desolvation temperature was 400 °C, and the desolvation gas flow was 800 L/h. The source temperature was 150 °C. The contents of Lut and Apn were calculated by the calibration curve and the response obtained by the peak area of them against the internal standard. Details on the multiple reaction monitoring (MRM) conditions, elution gradient programs, and UPLC method validation are provided in the Supplementary Materials Tables S2 and S3. The pharmacokinetic parameters, including maximum concentration (Cmax), time to reach maximum concentration (Tmax), and area under curve (AUC), were determined using the pharmacokinetic software WinNonlin Standard Edition v1.1 (Pharsight Corp., Mountainview, CA, USA).

[4] = parameters: method as in PMID 32785007; conditions: rats, oral 10 mg/kg; read-out: maximum plasma concentration (Cmax); cited from earlier work
[5] = cited from earlier work
[6] = Dissolution study, USP apparatus II (paddle method); type: physicochemical; conditions: for dissolution rate in bile extract solution: bile extract solution as dissolution medium; for dissolution rate after 60 min: standard dissolution medium, 0.05 M phosphate buffer pH 6.8, 37 °C, 20 μM
Description: To investigate the influence of bile extract (comprising bile salts and phospholipids) on the dissolution of these compounds, bile extract solutions were prepared according to the protocol described by Makioka et al. This involved dissolving 12 g of porcine bile extract and 8.4 g of sodium bicarbonate in 1 L of deionized water, which served as the dissolution medium. After the sample was placed in the dissolution medium, 1 mL aliquots of the medium were collected at 5, 10, 20, 30, 45, and 60 min of incubation, and filtered through a 0.2 μm polyethersulfone filter (Pall Corp., New York, NY, USA). Subsequently, 500 μL of each sample was acidified with 5 μL of 2 M acetic acid and stored at −20 °C until HPLC analysis.

[7] = Aqueous solubility, classical shake-flask method; conditions: ultrapure water
Description: Then, the resulting supernatant (the saturated solution) was aliquoted and diluted carefully and properly to perform the quantitative analysis using HPLC.

[8] = Oral pharmacokinetics of Lut, Lut7G and LutPs in SD rats; type: in vivo, Sprague Dawley (SD) rats
Description: as §1

[9] = parameters: method as in doi:10.1016/j.jff.2017.05.056; conditions: rats, 20 μmol/kg (5.725 mg/kg) via gavage; cited from earlier work
[10] = rat, in vivo, po, 185.02 umol/kg
[11] = rat, in vivo, po, 174.7 umol/kg

Structure (SMILES): O=c1cc(-c2ccc(OP(=O)(O)O)cc2)oc2cc(O)cc(O)c12 [Apn4′P, apigenin 4′-O-phosphate]
- half-life at 20 μM [1]: 1.07 h
- retained relative content after 240 min of incubation [2]: over 80%

Structure (SMILES): O=c1cc(-c2ccc(O)cc2)oc2cc(O[C@@H]3O[C@H](CO)[C@@H](O)[C@H](O)[C@H]3O)cc(O)c12 [Apn7G, apigenin 7-O-glucoside]
- Apn conjugates AUC0–t [3, 10]: 13,243.27 nM·h
- Apn conjugates Tmax [3, 10]: 2.00 h
- Lut (metabolite) conjugates AUC0–t [3, 10]: 8.78863 µM·h
- Lut (metabolite) conjugates Tmax [3, 10]: 2.00 h
- aglyconic Apn AUC0–t [3, 10]: 0.37171 µM·h
- aglyconic Apn Tmax [3, 10]: 0.5 h
- aglyconic Lut (metabolite) AUC0–t [3, 10]: 0.01854 µM·h
- aglyconic Lut (metabolite) Tmax [3, 10]: 1.00 h
- overall Apn AUC0–t [3, 10]: 13,614.98 nM·h
- overall Apn Tmax [3, 10]: 2.00 h
- overall Lut (metabolite) AUC0–t [3, 10]: 8.87017 µM·h
- overall Lut (metabolite) Tmax [3, 10]: 2.00 h

Structure (SMILES): O=c1cc(-c2ccc(O)cc2)oc2cc(OP(=O)(O)O)cc(O)c12 [Apn7P, apigenin 7-O-phosphate]
- half-life at 20 μM [1]: 0.73 h
- retained relative content after 240 min of incubation [2]: 76%

Structure (SMILES): O=c1cc(-c2ccc(O)cc2)oc2cc(O)cc(O)c12 [Apn, 4′,5,7-trihydroxyflavone]
- Cmax [4]: 80 nM
- absolute oral bioavailability [5]: 0.71%
- dissolution rate in bile extract solution [6]: 12.5%
- dissolution rate after 60 min [6]: 0.24%
- AUC(0-t) ([3]; male, Sprague Dawley, 185.02 umol/kg, rat plasma, oral 185.02 µmol/kg, 0 to 10 h, read-out: aglyconic Apn AUC0–t): 0.113 µM·h
- Cmax ([3]; male, Sprague Dawley, 185.02 umol/kg, rat plasma, oral 185.02 µmol/kg, mean ± SE, read-out: aglyconic Apn Cmax): 14 ± 1.27 nM
- aglyconic Apn Tmax ([3]; rat plasma, oral 185.02 µmol/kg): 0.5 h
- solubility [7]: 1.2 µg/mL (≈ 4.44 µM)

Structure (SMILES): O=c1cc(-c2ccc(O)c(OP(=O)(O)O)c2)oc2cc(O)cc(O)c12 [Lut3′P, luteolin 3′-O-phosphate]
- half-life at 20 μM [1]: 0.693 h
- retained relative content after 240 min of incubation [2]: over 80%

Structure (SMILES): O=c1cc(-c2ccc(OP(=O)(O)O)c(O)c2)oc2cc(O)cc(O)c12 [Lut4′P, luteolin 4′-O-phosphate]
- half-life at 20 μM [1]: 0.463 h
- retained relative content after 240 min of incubation [2]: over 80%

Structure (SMILES): O=c1cc(-c2ccc(O)c(O)c2)oc2cc(O[C@@H]3O[C@H](CO)[C@@H](O)[C@H](O)[C@H]3O)cc(O)c12 [Lut7G, luteolin 7-O-glucoside]
- AUC0–∞ of overall Lut ([8]; rat, in vivo, po): 35.419 µM·h
- aglyconic luteolin AUC0–t [8, 11]: 2.00935 µM·h
- aglyconic luteolin Tmax [8, 11]: 1.00 h
- luteolin conjugates AUC0–t [8, 11]: 31,336.03 nM·h
- luteolin conjugates Tmax [8, 11]: 4.00 h
- overall luteolin AUC0–t [8, 11]: 33,111.44 nM·h
- overall luteolin Tmax [8, 11]: 2.00 h

Structure (SMILES): O=c1cc(-c2ccc(O)c(O)c2)oc2cc(OP(=O)(O)O)cc(O)c12 [Lut7P, luteolin 7-O-phosphate]
- half-life at 20 μM [1]: 0.287 h
- retained relative content after 240 min of incubation [2]: 73%

Structure (SMILES): O=c1cc(-c2ccc(O)c(O)c2)oc2cc(O)cc(O)c12 [Lut, 3′,4′,5,7-tetrahydroxyflavone]
- brain tissue concentration [9]: less than 0.1 nmol/g
- Cmax ([8]; male, Sprague Dawley, 174.7 umol/kg, rat plasma, oral 174.7 µmol/kg, mean ± SE, read-out: aglyconic luteolin Cmax): 140 ± 194 nM
- AUC(0-t) ([8]; male, Sprague Dawley, 174.7 umol/kg, rat plasma, oral 174.7 µmol/kg, zero to 8 h, read-out: aglyconic luteolin AUC0–t): 0.635 µM·h
- Tmax ([8]; male, Sprague Dawley, 174.7 umol/kg, rat plasma, oral 174.7 µmol/kg, read-out: aglyconic luteolin Tmax): 1 h
- absolute oral bioavailability [5]: 4.10%
- dissolution rate in bile extract solution [6]: 10.2%
- dissolution rate after 60 min [6]: 3.5%
- solubility [7]: 13 µg/mL (≈ 45.4 µM)

Structure (SMILES): O=C1NC(c2ccccc2)(c2ccccc2)C(=O)N1COP(=O)(O)O [fosphenytoin]
- half-life at 20 μM [1]: 1.67 h
